{"source": "patent US10590393B2", "about": "“Retinoic acid enhanced human stem cell derived blood brain barrier model” (Wisconsin Alumni Research Foundation, priority 2012, dated 2020)", "type_in_all_cases": "cell-based, human", "key": {"IMR90-4-derived BMECs [1]": {"tested_on": "IMR90-4-derived BMECs", "experiment": "Analysis of tight junction fidelity (frayed tight junctions, occludin immunolabel)", "description": "Cells were washed twice with phosphate-buffered saline (PBS; Sigma) and fixed with either 100% ice-cold methanol for 10 min or 4% paraformaldehyde for 15 min. Cells were then washed twice with PBS and blocked in PBS containing 40% goat serum (40% PBSG; Sigma) at 20° C. for 30 min. In some instances, 0.1% Triton X-100 (TX-100) was included during this step to permeabilize the cells. Cells were then washed once with PBS and incubated with primary antibodies against occludin (1:100; Invitrogen), claudin-5 (1:100; Invitrogen), VE-cadherin (1:25; Santa Cruz Biotechnology), von Willebrand Factor (vWF; 1:100; Dako), p-glycoprotein (clone F4; 1:25; Lab Vision), breast cancer resistance protein (BCRP, clone 5D3; 1:25; Millipore), multidrug resistance protein 1 (MRP1, clone QCRL-1; 1:100; Millipore), in 40% PBSG at 4° C. overnight. Cells were washed three times with PBS and incubated with secondary antibodies (goat anti-rabbit Texas Red and goat anti-mouse Alexa Fluor 488; 1:500; Invitrogen) for 1 h at 20° C. Cell nuclei were counterstained with 300 nM 4′,6-Diamidino-2-pheny-lindoldihydrochloride (DAPI) for 10 min. […] For quantitative analysis of BMEC integrity, the percentage of cells expressing frayed tight junctions was counted using BMECs immunolabeled for occludin. […] A minimum of four separate frames and 1000 total cells were counted to obtain a percentage of frayed tight junctions."}, "IMR90-4-derived BMECs [2]": {"tested_on": "IMR90-4-derived BMECs", "experiment": "Efflux transporter substrate accumulation", "conditions": "10 μM RA vs. DMSO-treated controls; 1 h at 37° C.", "description": "(§1) hiPSC-derived BMECs differentiated in the presence or absence of RA were subcultured onto 12-well plates in EC medium with 10 μM RA or equivalent DMSO depending on the differentiation condition. […] Cells were washed three times with phosphate-buffered saline (PBS) and then lysed with PBS containing 5% Triton X-100 (TX-100; Fisher). Fluorescence (485 nm excitation and 530 nm emission) was measured using a plate reader and radioactivity was measured on a scintillation counter. Fluorescence/radioactivity was normalized on a per cell basis by counting trypsin-dissociated cells on a hemacytometer. Duplicate or triplicate wells were used for each condition to calculate mean and standard deviation. Each experiment was conducted twice to ensure biological reproducibility."}, "DF19-9-11T-derived BMECs [3]": {"tested_on": "DF19-9-11T-derived BMECs", "experiment": "Efflux transporter substrate accumulation", "conditions": "due to RA treatment", "description": "as §1"}, "DF19-9-11T-derived BMECs [4]": {"tested_on": "DF19-9-11T-derived BMECs", "experiment": "TEER of RA-treated DF19-9-11T-derived BMECs", "description": "(§2) IMR90-4 and DF19-9-11T hiPSCs and H9 hESCs were maintained between passages 26-42 on […] (BD Biosciences) in mTeSR1™ medium ([…] Technologies) or on irradiated mouse embryonic fibroblasts (MEFs) in standard unconditioned medium (Dulbecco's Modified Eagle's Medium [DMEM]/Ham's F12 containing 20% Knockout Serum Replacer (Invitrogen), 1×MEM nonessential amino acids (Invitrogen), 1 mM L-glutamine (Sigma), 0.1 mM β-mercaptoethanol (Sigma), and human basic fibroblast growth factor (bFGF; 100 ng/mL for hiPSCs and 4 ng/mL for hESCs; Waisman Clinical Biomanufacturing Facility, University of Wisconsin-Madison)). Prior to differentiation, cells were passaged onto Matrigel (BD Biosciences) in mTeSR1 medium ([…] Technologies). After 2-3 days in mTeSR1, medium was switched to unconditioned medium (UM) lacking bFGF for 6 days. Human endothelial serum-free medium (hESFM; Invitrogen) supplemented with 20 ng/mL bFGF (R&D Systems) and 1% platelet-poor plasma derived bovine serum (Biomedical Technologies, Inc.) was then added for an additional 2-4 days.\n(§3) All-trans RA (Sigma) was included at concentrations of 1-10 μM depending on the experiment. Equivalent DMSO was used as a vehicle control in some experiments. Cells were then dissociated with Versene (Invitrogen) and plated onto 12-well tissue culture polystyrene plates or 1.12 cm^2 Transwell-Clear® permeable inserts (0.4 μm pore size) coated with a mixture of collagen IV (400 μg/mL; Sigma) and fibronectin (100 μg/mL; Sigma). Culture plates were incubated with the coating for at least 30 min at 37° C., while the inserts were incubated for a minimum of 4 h at 37° C. hPSC-derived BMECs were then cultured in EC medium overnight (with or without RA). […] Also, our previous study used hPSCs exclusively maintained on MEFs.\nFIG. 5 dictates the timing of co-culture experiments. […] Trans-endothelial electrical resistance (TEER) was measured immediately prior to co-culture using an EVOM voltohmmeter (World Precision Instruments, Sarasota, Fla., USA) and approximately every 24 h thereafter as necessary."}, "IMR90-4-derived BMECs [5]": {"tested_on": "IMR90-4-derived BMECs", "experiment": "TEER of RA-treated IMR90-4-derived BMECs (monoculture and neural cell co-culture)", "description": "as §2, §3\n(§4) FIG. 5 dictates the timing of co-culture experiments. During the subculture phase, hPSC-derived BMECs were monocultured or co-cultured with pericytes or fibroblasts in EC medium (with or without RA). After the 24 h subculture phase, hPSC-derived BMECs were maintained as a monoculture or co-cultured with differentiated hNPCs, pericytes, or fibroblasts. Depending on the experiment, co-culture was conducted in NPC differentiation medium containing 10% FBS (as opposed to the 1% FBS used during NPC differentiation) or hESFM containing 1% PDS but not bFGF (modified EC medium). Trans-endothelial electrical resistance (TEER) was measured immediately prior to co-culture using an EVOM voltohmmeter (World Precision Instruments, Sarasota, Fla., USA) and approximately every 24 h thereafter as necessary."}, "H9-derived BMECs": {"tested_on": "H9-derived BMECs", "experiment": "TEER of RA-treated H9-derived BMECs", "description": "as §2, §3, §4"}}, "note": "Values joined by “and” are separate entries in the source; they are usually repeats but may differ in a detail not shown here. Equal entries are not always repeated."}
{"molecule": "CC1=C(/C=C/C(C)=C/C=C/C(C)=C/C(=O)O)C(C)(C)CCC1", "note": "[RA, retinoic acid]", "values": [{"measurement": "cells with frayed tight junctions", "setting": "IMR90-4-derived BMECs [1]; BMECs only treated with RA", "result": "1.5±0.9", "unit": "%"}, {"measurement": "cells with frayed tight junctions", "setting": "IMR90-4-derived BMECs [1]; RA-treated BMECs with sequential pericyte/hNPC co-culture in modified EC medium", "result": "1.4±0.6", "unit": "%"}, {"measurement": "decrease of DCFDA accumulation", "setting": "IMR90-4-derived BMECs [2]", "result": 2.9, "unit": "fold"}, {"measurement": "decrease of colchicine accumulation", "setting": "IMR90-4-derived BMECs [2]", "result": 2.4, "unit": "fold"}, {"measurement": "decrease of doxorubicin accumulation", "setting": "IMR90-4-derived BMECs [2]", "result": 1.6, "unit": "fold"}, {"measurement": "decrease of rhodamine 123 accumulation", "setting": "IMR90-4-derived BMECs [2]", "result": 1.4, "unit": "fold"}, {"measurement": "reduction in rhodamine 123 accumulation", "setting": "DF19-9-11T-derived BMECs [3]", "result": 1.5, "unit": "fold"}, {"measurement": "Maximum TEER", "setting": "DF19-9-11T-derived BMECs [4]; subculture: pericytes, co-culture phase: differentiated NPCs (11 days), 1% PDS", "result": "4738±303 Ω × cm^2 and 4738 ± 303 (2) Ω × cm^2"}, {"measurement": "Average TEER", "setting": "DF19-9-11T-derived BMECs [4]; t = 24 h, between biological replicates", "result": "1707 ± 417 Ω × cm^2"}, {"measurement": "Maximum TEER", "setting": "DF19-9-11T-derived BMECs [4]; t = 24 h, triplicate filters", "result": "1968±288 Ω × cm^2"}, {"measurement": "TEER", "setting": "IMR90-4-derived BMECs [5]; 24 hours after transfer to EC medium without bFGF or RA, monoculture", "result": "above 2000 Ω×cm^2"}, {"measurement": "TEER", "setting": "IMR90-4-derived BMECs [5]; 24 hours in modified EC medium, fibroblasts (FIG. 11a)", "result": "2405±366 Ω×cm^2"}, {"measurement": "TEER", "setting": "IMR90-4-derived BMECs [5]; 24 hours in modified EC medium, monoculture control (FIG. 11a)", "result": "2474±124 Ω×cm^2"}, {"measurement": "TEER", "setting": "IMR90-4-derived BMECs [5]; 24 hours, sequential pericyte/hNPC co-culture in modified EC medium (FIG. 11a)", "result": "5160±318 Ω×cm^2"}, {"measurement": "TEER", "setting": "IMR90-4-derived BMECs [5]; pericyte/hNPC co-culture, each of 7 co-cultures, hNPCs differentiated 10-19 days, 10% FBS (FIG. 10c)", "result": "exceeded 2500 Ω×cm^2"}, {"measurement": "TEER under optimal conditions", "setting": "IMR90-4-derived BMECs [5]; pericytes/hNPCs in modified EC medium, five out of six separate co-culture experiments", "result": "> 5000 Ω×cm^2"}, {"measurement": "Maximum TEER", "setting": "IMR90-4-derived BMECs [5]; subculture: monoculture, co-culture phase: differentiated NPCs (10 days), 10% FBS", "result": "2938 ± 229 (3) Ω × cm^2"}, {"measurement": "Maximum TEER", "setting": "IMR90-4-derived BMECs [5]; subculture: pericytes, co-culture phase: differentiated NPCs (10 days), 10% FBS", "result": "3606 ± 366 (7) Ω × cm^2"}, {"measurement": "Maximum TEER", "setting": "IMR90-4-derived BMECs [5]; subculture: pericytes, co-culture phase: differentiated NPCs (17 days), 1% PDS", "result": "5352±252 Ω × cm^2 and 5352 ± 252 (6) Ω × cm^2"}, {"measurement": "Maximum TEER", "setting": "IMR90-4-derived BMECs [5]; subculture: pericytes, co-culture phase: pericytes, 1% PDS (modified EC medium), 24 h", "result": "4454±174 Ω × cm^2 and 4454 ± 175 ^ Ω × cm^2"}, {"measurement": "Maximum TEER", "setting": "IMR90-4-derived BMECs [5]; subculture: pericytes, co-culture phase: pericytes, 10% FBS", "result": "2892 ± 271 ^ Ω × cm^2"}, {"measurement": "Average TEER", "setting": "IMR90-4-derived BMECs [5]; t = 0 h, monoculture, mean ± S.D. between biological replicates", "result": "956 ± 345 Ω × cm^2"}, {"measurement": "Maximum TEER", "setting": "IMR90-4-derived BMECs [5]; t = 0 h, monoculture, mean ± S.D. between triplicate filters", "result": "1502 ± 145 Ω × cm^2"}, {"measurement": "Average TEER", "setting": "IMR90-4-derived BMECs [5]; t = 24 h, monoculture, modified EC medium without bFGF or RA, between biological replicates", "result": "2935±802 Ω × cm^2 and at least 2935±802 Ω × cm^2"}, {"measurement": "Maximum TEER", "setting": "IMR90-4-derived BMECs [5]; t = 24 h, monoculture, triplicate filters", "result": "3674 ± 367 Ω × cm^2"}, {"measurement": "baseline TEER", "setting": "IMR90-4-derived BMECs [5]; t=0 h, 24 hours after purification at confluence, range over experiments", "result": "300-1500 Ω×cm^2"}, {"measurement": "TEER", "setting": "IMR90-4-derived BMECs [5]; t=0, human foreskin fibroblasts in place of pericytes (FIG. 11a)", "result": "2106±30 Ω×cm^2"}, {"measurement": "TEER", "setting": "IMR90-4-derived BMECs [5]; t=0, monoculture control of FIG. 11a", "result": "1575±163 Ω×cm^2"}, {"measurement": "TEER", "setting": "IMR90-4-derived BMECs [5]; t=0, pericyte co-culture during the subculture phase, standard EC medium (FIG. 11a)", "result": "3573±175 Ω×cm^2"}, {"measurement": "TEER", "setting": "H9-derived BMECs; optimized RA schedule (6D UM, 1D EC, 3D EC+RA), after purification (FIG. 9c)", "result": "1039±142 Ω×cm^2"}, {"measurement": "Maximum TEER", "setting": "H9-derived BMECs; subculture: pericytes, co-culture phase: differentiated NPCs (9 days), 1% PDS", "result": "1675±95 Ω × cm^2 and 1675 ± 95 (2) Ω × cm^2"}, {"measurement": "Average TEER", "setting": "H9-derived BMECs; t = 24 h, optimized RA schedule, between biological replicates", "result": "646±308 Ω × cm^2"}, {"measurement": "Maximum TEER", "setting": "H9-derived BMECs; t = 24 h, triplicate filters", "result": "1028 ± 153 Ω × cm^2"}]}
